Data published in patent US7342137B1, “Cyclohexenone compounds from Antrodia camphorata and application thereof” (Golden Biotechnology Corporation, priority 2007, dated 2008).

Columns and labels:
[1] = test system: human prostate cancer cells, LNCaP; assay: In vitro survival assay (MTT), prostate cancer cells LNCaP; assay type: cell-based; conditions: 48 hours incubation
Description: The NCI anti-cancer drug screen model was also adopted to test the anti-cancer effect of the compound isolated from example 1 in the present invention. The isolated compound of 4-hydroxy-2,3-dimethoxy-6-methyl-5(3,7,11-trimethyl-dodeca-2,6,10-trienyl)-cyclohex-2-enone from example 1 was added into the culture media of human prostate cancer cells, LNCaP or DU-145, for tumor cell survival assay.
The human […] cells, LNCaP and DU-145, were separately cultivated in media containing fetal calf serum for 24 hours. The proliferated cells were washed once with PBS, then treated with 1× trypsin-EDTA and centrifuged at 1200 rpm for 5 minutes. The supernatant was discarded and the cell pellet was resuspended in 10 ml of fresh culture medium by gently shaking. The cells were placed in a 96-well plate. Ethanol extracts of Antrodia camphorata (the control group, total extracts of Antrodia camphorata without purification) or 4-hydroxy-2,3-dimethoxy-6-methyl-5(3,7,11-trimethyl-dodeca-2,6,10-trienyl)-cyclohex-2-enone (the experiment group) were added into each of the 96 wells at the following concentrations: 30, 10, 3, 1, 0.3, 0.1 and 0.03 μg/ml, respectively. The cells were incubated at 37° C. in a 5% CO2 incubator for 48 hours. […] The plates were read on an ELISA reader at wavelength of 570 nm to determine the survival rates.

[2] = test system: human prostate cancer cells, LNCaP; assay: In vitro Taxol add-on study (MTT), prostate cancer cells LNCaP; assay type: cell-based; conditions: Homo sapiens; LNCaP (0.0017 μg/ml Taxol + formula 2) as printed in Table 6
Description: The experiment was also carried out according to NCI anti-cancer drug screen in vitro model. The human prostate cancer cells, LNCaP and DU-145 were separately cultivated in media containing fetal calf serum for 24 hours. The proliferated cells were washed once with PBS, then treated with 1× trypsin-EDTA and centrifuged at 1200 rpm for 5 minutes. The supernatant was discarded and the cell pellet was resuspended in 10 ml of fresh culture medium by gently shaking. The LNCaP cells were treated with 0.0017 μg/ml of Taxol for 72 hours and DU-145 cells were treated with 0.0043 μg/ml of Taxol for 72 hours before placing in a 96-well plate. 4-hydroxy-2,3-dimethoxy-6-methyl-5(3,7,11-trimethyl-dodeca-2,6,10-trienyl)-cyclohex-2-enone obtained from example 1 were added respectively into each of the 96 wells at the following concentrations: 0 μg/ml (the control group); 30, 10, 3, 1, 0.3, 0.1 and 0.03 μg/ml (the experiment group). The cells were incubated at 37° C. in a 5% CO2 incubator for 48 hours. MTT was added in a concentration of 2.5 mg/ml into each well in dark and reacted for 4 hours, followed by the addition of 100 μl of lysis buffer to stop the reaction. The plates were read on an ELISA reader at wavelength of 570 nm to determine the survival rates.

IC50 [2]: 0.961 µg/mL
SMILES: COC1=C(OC)C(O)C(C/C=C(\C)CC/C=C(\C)CCC=C(C)C)C(C)C1=O (centres unmarked) [formula 2, 4-hydroxy-2,3-dimethoxy-6-methyl-5(3,7,11-trimethyl-dodeca-2,6,10-trienyl)-cyclohex-2-enone]
IC50 [1]: 2.38 µg/mL
